Laboratory results published in US20260176228A1, “MODULATORS OF LIVER RECEPTOR HOMOLOGUE 1 (LRH-1) AND USES” (Emory University, priority 2022, published 2026).

Tests used:
[1] = molecular target: T1, LRH-1 LBD (Homo sapiens, UniProt O00482); experiment: Thermal stability assay (Tycho NT.6) of LRH-1 LBD complexed with ligands; type: binding; conditions: LRH-1 LBD with 5-fold molar excess of ligand; for Inflection Point (Thermal Stability), shift in parentheses: value in parentheses
T1 construct: LRH-1 LBD (residues 299-541) in the pMSC7 vector; His tag; made in house; host or cells: BL21 (DE3) pLysS E. coli
Protocol: Thermal shift was also assessed for each of the compounds to determine the protein thermal stability. Thermal stability of the LRH-1 LBD complexed with ligands was determined using a Tycho NT.6 Nanotemper. The LRH-1 LBD was incubated with 5-fold molar excess of ligand (final DMSO concentration was 1.4%) overnight at 4° C. in assay buffer (150 mM NaCl, 20 mM Tris-HCl, and 5% glycerol (pH 7.4)). Complexes were centrifuged at high speed for five minutes and then loaded into capillaries. Tryptophan/tyrosine fluorescence was monitored at wavelengths of 330 nm and 350 nm over a 30° C./min gradient (35° C.-95° C.). The inflection point was determined with Tycho NT.6 software. Two separate experiments were conducted in triplicate.

[2] = molecular target: T1, LRH-1 LBD; experiment: FP competition (binding) assay; conditions: interval in brackets in the cell
[3] = molecular target: T2, LRH-1 (Homo sapiens, UniProt O00482); experiment: Luciferase reporter (activation) assay in HeLa cells transfected with full-length LRH-1 and SHP-luc reporter; type: cell-based; conditions: 24 hours treatment, interval in brackets in the cell
T2 construct: The transfected plasmids included full-length LRH-1 in a pCI vector (5 ng/well); expressed in transfected cells; host or cells: HeLa cells
Protocol: HeLa cells were seeded at a density of 10,000 cells per well in white-walled, clear-bottomed 96-well culture plates. The next day, cells were transfected with LRH-1 and reporters, using Fugene™ HD (Roche; Indianapolis, IN) at a ratio of 5:2 Fugene™ (μl): DNA (μg). The transfected plasmids included full-length LRH-1 in a pCI vector (5 ng/well), and a SHP-luc reporter, encoding the LRH-1 response element and surrounding sequence from the SHP promoter cloned upstream of firefly luciferase in the pGL3 basic vector (50 ng/well). Cells were also co-transfected with a constitutive Renilla luciferase reporter (utilizing the CMV promoter), which was used for normalization of firefly signal (1 ng/well). Control cells received pCI empty vector at 5 ng/well in place of LRH-1-pCI. Agonists were dissolved in DMSO and then diluted into media, with a final concentration of 0.3% DMSO in all wells. Luciferase signal was quantified using the DualGlo™ kit (Promega; Madison, WI). Experiments were conducted at least two times in triplicate. Compounds were synthesized and evaluated in biological assays.

[4] = system: hepatic LRH-1; experiment: Liver target gene expression in H-mLRH-1 mice (RNA-seq, RT-qPCR); type: in vivo; conditions: 30 mg/Kg IP injection
Protocol: FIGS. 2A, 2B, and 2C show the target gene expression driven by 6N-10CA-ME. FIG. 2A is a Volcano Plot showing RNA-seq of H-mLRH-1 mice treated with 3 mg/Kg of 6N-10CA-ME via an intraperitoneal injection. FIG. 2B is a Volcano Plot showing RNA-seq of H-mLRH-1 mice treated with 30 mg/Kg of 6N-10CA-ME via an intraperitoneal injection. FIG. 2C is a RT-qPCR showing target gene expression at 3 and 30 mg/kg doses.
The tissue distribution of compounds as described herein and the dosage needed for the in vivo activation of hepatic LRH-1 were evaluated. For these studies, H-mLRH-1 mice (male and female; 10 weeks of age) were used. A single dose time course experiment was conducted in which different cohorts of H-mLRH-1 mice (n=6) were given a high dose (i.e., 30 mg/kg compound) via oral and intraperitoneal (IP) delivery. Liver tissue was harvested and the gene expression of Cyp7a1, Scarb1, ApoA4, and Shp was measured using standard qPCR methods at 1, 3, 6, 12, and 24 hrs. The time of peak target gene expression for a dose finding study was selected. Different cohorts of H-mLRH-1 mice were given 6 doses of the compounds using a half-log scale (i.e., 0, 0.003, 0.03, 0.3, 3, and 30 mg/kg) via oral or IP delivery. Collected liver tissue was used to monitor the expression of the genes listed above.

[5] = molecular target: SF-1 (Homo sapiens, UniProt Q13285); experiment: SF-1 LUC-reporter gene activation in cultured cells; type: cell-based
[6] = system: other nuclear receptors (NRs); experiment: Nuclear receptor cross-reactivity in reporter cells; type: cell-based; conditions: 2 μM in reporter cells; normalized to reference agonist for each receptor
Protocol: 6N-10CA-ME was introduced to reporter cells at 2 μM and the activity of respective NRs was tested. Data are normalized relative to activity induced by the appropriate reference agonist for each receptor.
SF-1 activity was assessed using RT-qPCR for target genes (e.g., Star, Fdps, Hmgcr), though morphological/histological examination of these organs and by monitoring circulating levels of cortisol, aldosterone and androsterone using targeted LC/MS/MS.

[7] = system: H-mLRH-1 mice with diet-induced obesity; experiment: Diet-induced obesity (HFD) model, glucose tolerance; type: in vivo; conditions: HFD (60% fat) mice, 3 mg/kg, intraperitoneal daily from 12 to 16 weeks of HFD
Protocol: Male and female mice were treated with 6N-10CA-ME via an intraperitoneal injection starting at 12 weeks of High Fat Diet (HFD; 60% fat) feeding and continuing daily to 16 weeks of HFD feeding. (Panel A) Summary of body weights of mice in each group at 0, 12, and 16 weeks of HFD feeding. (Panels B and C) Fasting blood glucose (mg/dL) levels of mice in each group at 12 and 16 weeks of HFD feeding. (Panel D) Glucose tolerance tests (GTT) following administration of glucose (2 g/kg) at 12 and 16 weeks of HFD feeding. (Panel E) Area under the curve (AUC) summary of GTT at 12 and 16 weeks of HFD feeding. Data are represented as means+/−SEM. Sample size is 6-17 per group. **** p<0.0001 vs. chow. Data were analyzed with a two-way ANOVA with Tukey multiple comparison test.
In this study, a mouse model of DIO was used to evaluate the in vivo efficacy of the compounds as described herein, including the ability of the compounds to (1) attenuate hepatic steatosis and (2) improve glucose tolerance and insulin resistance.
H-mLRH-1 mice (male and female) were fed one of the following diets (OpenSource Diets) for 16 weeks starting at 8 weeks of age: (1) Control Diet (10% fat diet, D12450Ji) or (2) High Fat Diet (HFD, 60% fat; D12492i). […]

[8] = system: diabetic mice; conditions: diabetic mice fed DLPC; Lee et al. Nature 2011; cited from earlier work

T1 sequence (O00482 299-541): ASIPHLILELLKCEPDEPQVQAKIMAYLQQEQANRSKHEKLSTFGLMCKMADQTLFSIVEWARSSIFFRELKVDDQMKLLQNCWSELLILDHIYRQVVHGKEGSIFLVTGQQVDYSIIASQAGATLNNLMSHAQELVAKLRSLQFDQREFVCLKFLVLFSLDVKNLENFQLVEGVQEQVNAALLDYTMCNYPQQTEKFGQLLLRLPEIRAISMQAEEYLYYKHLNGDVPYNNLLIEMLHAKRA
T2 sequence (O00482 whole entry): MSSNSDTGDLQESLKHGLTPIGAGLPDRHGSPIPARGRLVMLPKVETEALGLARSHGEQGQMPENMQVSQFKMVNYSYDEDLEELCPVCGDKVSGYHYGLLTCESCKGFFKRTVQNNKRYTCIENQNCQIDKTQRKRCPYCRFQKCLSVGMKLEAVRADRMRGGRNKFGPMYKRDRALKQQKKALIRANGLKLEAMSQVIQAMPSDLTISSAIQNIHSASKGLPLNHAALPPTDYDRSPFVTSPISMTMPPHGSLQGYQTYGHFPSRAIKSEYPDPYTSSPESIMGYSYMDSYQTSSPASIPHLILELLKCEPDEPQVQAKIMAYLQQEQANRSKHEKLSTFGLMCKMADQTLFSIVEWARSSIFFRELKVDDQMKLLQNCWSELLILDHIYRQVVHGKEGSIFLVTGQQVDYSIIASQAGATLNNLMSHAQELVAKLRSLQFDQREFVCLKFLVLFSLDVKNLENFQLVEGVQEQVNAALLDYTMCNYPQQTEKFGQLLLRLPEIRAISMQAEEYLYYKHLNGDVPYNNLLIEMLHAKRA
SF-1, sequence (Q13285 whole entry): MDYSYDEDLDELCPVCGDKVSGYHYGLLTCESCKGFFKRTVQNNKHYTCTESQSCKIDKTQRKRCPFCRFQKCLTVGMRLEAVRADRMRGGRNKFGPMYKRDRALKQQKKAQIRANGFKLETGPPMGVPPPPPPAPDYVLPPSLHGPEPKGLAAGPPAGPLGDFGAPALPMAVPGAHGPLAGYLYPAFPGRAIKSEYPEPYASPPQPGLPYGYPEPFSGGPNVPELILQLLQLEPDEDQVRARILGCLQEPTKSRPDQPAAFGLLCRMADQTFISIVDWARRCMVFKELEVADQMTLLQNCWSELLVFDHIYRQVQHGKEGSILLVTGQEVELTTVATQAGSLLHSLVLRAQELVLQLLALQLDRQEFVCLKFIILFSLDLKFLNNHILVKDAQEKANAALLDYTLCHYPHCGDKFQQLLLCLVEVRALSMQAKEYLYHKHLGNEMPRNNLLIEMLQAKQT

Row | SMILES | Inflection Point (Thermal Stability) [1] | Inflection Point (Thermal Stability), shift in parentheses [1] | Ki [2] | EC50 [3] | Liver target gene expression [4] | SF-1 activity (LUC-reporter gene activation) [5] | Cross-reactivity with other nuclear receptors [6] | Glucose intolerance [7] | Glucose tolerance and hepatic fat accumulation [8]
1 | C=C(c1ccccc1)C12CCC(NS(N)(=O)=O)C1CC(CCOCCCOCCC(=O)O)=C2c1ccccc1 (stereo not drawn) [Compound 6N-10CA-DE, 3-(3-(2-(3-phenyl-3a-(1-phenylvinyl)-6-(sulfamoylamino)-1,3a,4,5,6,6a-hexahydropentalen-2-yl)ethoxy)propoxy) propanoic acid] | 61 °C | +5.9 °C | 480 nM | 1200 nM |  |  |  |  | 
2 | C=C(c1ccccc1)C12CCC(NS(N)(=O)=O)C1CC(CCCCOCCCCC(=O)O)=C2c1ccccc1 (stereo not drawn) [Compound 6N-10CA-ME, 5-(4-(3-phenyl-3a-(1-phenylvinyl)-6-(sulfamoylamino)-1,3a,4,5,6,6a-hexahydropentalen-2-yl)butoxy) pentanoic acid] | 65 °C | +9.9 °C | 12 nM | 50 nM | elevation of Cyp7a1 and Apoa4 and a reduction in Fasn | displays SF-1 activity | minimal cross-reactivity | reduces glucose intolerance | 
3 | C=C(c1ccccc1)C12CCC(O)C1CC(CCOCCCOCCC(=O)O)=C2c1ccccc1 (stereo not drawn) [Compound 10CA-DE, 3-(3-(2-(6-hydroxy-3-phenyl-3a-(1-phenylvinyl)-1,3a,4,5,6,6a-hexahydropentalen-2-yl)ethoxy)propoxy) propanoic acid] | 57 °C | +1.9 °C | 10000 nM | 3200 nM |  |  |  |  | 
4 | C=C(c1ccccc1)C12CCC(O)C1CC(CCCCOCCCCC(=O)O)=C2c1ccccc1 (stereo not drawn) [Compound 10CA-ME, 5-(4-(6-hydroxy-3-phenyl-3a-(1-phenylvinyl)-1,3a,4,5,6,6a-hexahydropentalen-2-yl)butoxy) pentanoic acid] | 59 °C | +3.9 °C | 110 nM | 870 nM |  |  |  |  | 
5 | CCCCCCCCCCCC(=O)OC[C@H](COP(=O)([O-])OCC[N+](C)(C)C)OC(=O)CCCCCCCCCCC [DLPC, dilauroyl-phosphatidylcholine] |  |  |  |  |  |  |  |  | improved glucose tolerance and reduced hepatic fat accumulation
